Literature values in patent US20110105624A1, “ENDIPALENE FORMULATIONS IN THE TREATMENT OF PSORIASIS” (priority 2008, published 2011).

System: volunteers with psoriasis

For `COc1c(OC)c(OC(C)=O)c2cc(Cl)ccc2c1OC(C)=O` [Lonapalene, 6-chloro-2,3-dimethoxynaphtalendiacetate], the “clinical improvement in lesions” value (2% ointment, topical, compared with vehicle-treated sites) is listed as “statistically significant clinical improvement” and the “side effects related to topical application” value (topical application) is listed as “serious side effects”.
